Assay results from publication PMC12148371 (iScience, 2025).
Read-outs that look alike come from different tables or passages of the source.

Legend:
[1] = tested on: pseudotyped BDBV; assay: microbe, parasite or virus in culture; format: cell-based, Bundibugyo ebolavirus; details: Bundibugyo virus, TZM-bl, read-out: BDBV (IC50)
[2] = tested on: pseudotyped EBOV; assay: microbe, parasite or virus in culture; format: cell-based, Zaire ebolavirus; details: for IC50: read-out: EBOV (IC50)
[3] = in vitro; details: human
[4] = tested on: infectious EBOV; assay: microbe, parasite or virus in culture; format: cell-based, Ebola Zaire virus; details: Zaire ebolavirus, read-out: Infectious EBOV (IC50)
[5] = tested on: NPC1 binding to Ebola GP-RBD; set-up: species or system Ebola virus
[6] = molecular target: GP-RBD-Fc (without the glycan cap and MLD) (Bundibugyo ebolavirus (key resources table); called EBOV in the results); assay: BLI; pH 7.4
[7] = molecular target: GP-RBD-Fc (without the glycan cap and MLD) (Bundibugyo ebolavirus (key resources table); called EBOV in the results); assay: BLI; pH 6.1
[8] = tested on: pseudotyped VSV; format: cell-based, vesicular stomatitis virus
[9] = tested on: pseudotyped A-MLV; format: cell-based, amphotropic murine leukemia virus

Row | Molecule | IC50 [1] | IC50 ([2]; Zaire ebolavirus, TZM-bl) | IC50 [2] | CC50 [3] | IC50 [4] | NPC1 binding remaining (A488+ cells) in presence of competitor [5] | inhibition potency against EBOV, in words [2] | Kd [6] | Kd [7] | neutralization of pseudotyped VSV [8] | neutralization of pseudotyped A-MLV [9]
1 | CC1(C)CC(NC(=O)C(=O)Nc2ccc(C(F)(F)F)c(F)c2)CC(C)(C)N1 [DY-III-226] | 10.6 ± 0.5 µM | 11.1 µM | 11.2 ± 0.8 µM | 48.4 ± 5.4 µM |  |  |  |  |  |  | 
2 | CC1(C)CC(NC(=O)C(=O)Nc2ccc(Cl)cc2)CC(C)(C)N1 [NBD-556] | 16.8 ± 2.1 µM | 18.2 ± 1 µM |  | 67.7 ± 7.3 µM | 18.8 µM | 28.36% |  |  |  |  | 
3 | CC1(C)CC(NC(=O)C(=O)Nc2ccc(C(C)(C)C)c(F)c2)CC(C)(C)N1 [DY-III-228] | 2.25 ± 0.2 µM | 1.98 ± 0.5 µM |  | 20.6 ± 2.6 µM | 0.56 µM | 30.90% |  |  |  |  | 
4 | CNCc1ccc2c(c1)C[C@H](CNC(=N)N)[C@H]2NC(=O)C(=O)Nc1ccc(Cl)c(F)c1 [BNM-III-170] |  | > 30 µM |  |  |  |  | largely reduced |  |  |  | 
5 | human soluble CD4-183 (sCD4-183) two-domain protein (domain or fragment) |  |  |  |  |  |  |  | 52 µM | 0.36 µM |  | 
6 | CC1(C)CC(NC(=O)C(=O)Nc2ccc(Br)cc2)CC(C)(C)N1 [NBD-557] | 10.6 ± 1.8 µM | 19.8 ± 1.7 µM |  |  |  |  |  |  |  |  | 
7 | CC1(C)CC(NC(=O)C(=O)Nc2cc(F)c(Cl)c(F)c2)CC(C)(C)N1 [DY-III-227] | 12.1 ± 0.7 µM | 12.1 µM | 12.5 ± 1.5 µM | 68.3 ± 4.3 µM |  |  |  |  |  |  | 
8 | CC1(C)CC(NC(=O)C(=O)Nc2ccc(Cl)c(F)c2)CC(C)(C)N1 [JRC-II-191] | 9.99 ± 1.1 µM | 9.52 ± 1.4 µM |  | 43.2 ± 6 µM | 5.25 µM | 24.29% |  |  |  | did not neutralize | did not neutralize
9 | CC1(C)CC(NC(=O)C(=O)Nc2ccc(C(C)(C)C)cc2)CC(C)(C)N1 [Compd N9] | 17.6 ± 2.7 µM | 9.51 ± 1.6 µM |  | > 100 µM | 9.46 µM |  |  |  |  |  | 
